From US20070212700A1, “Methods of using and analyzing biological sequence data” (THE BOARD OF REGENTS OF THE UNIVERSITY OF TEXAS SYSTEM, priority 2005, published 2007)

How the values were obtained:
[1] = tested on: biotinylated oriented peptide libraries (group I PPxY, group II PPLP, group III PPR, group IV pS/pT-P); experiment: Oriented peptide library binding assay (ELISA) for WW domain specificity
Source text: FIGS. 25A-D: Assays for binding affinity and specificity in WW domains. FIG. 25A: five N-terminal biotinylated oriented peptide libraries were constructed to present either a proline-only control (biotin-Z-GMAxxxxPxxxxAKKK (SEQ ID NO:162)) or the four different characteristic WW domain binding motifs: group I-oriented (biotin-Z-GMAxxxPPxYxxxAKKK-C (SEQ ID NO:163)), group II-oriented (biotin-Z-GMAxxxPPLPxxxAKKK (SEQ ID NO:164)), group III-oriented (biotin-Z-GMAxxxPPRxxxAKKK (SEQ ID NO:165)), and group IV-oriented (biotin-Z-GMAxxxxpSPxxxxAKKK (SEQ ID NO:166)), where Z is 6-aminohexanoic acid, pS is phosphoserine, and x denotes all amino acids except Cys. Binding to these peptides indicte affinity for the consensus motifes listed in FIG. 25A (SEQ ID NO:167-171). […] FIG. 25C: binding specificity of artificial WW domains from the CC55 set. Binding is reported in fold above background binding in the absence of target peptides. Shown are the mean and standard deviation of at least four independent assays. FIG. 25D: the binding specificity of additional artificial and natural WW domains.
An oriented peptide library binding assay was developed for measuring WW domain specificity, and a set of natural and artificial sequences was studied. Four biotinylated degenerate peptide libraries were constructed, each oriented around one group-specific WW recognition motif, and binding was detected using an ELISA assay (see FIGS. 25A and 25B). For example, the group I oriented peptide library was biotin-Z-GMAxxxPPxYxxxAKKK (SEQ ID NO:163), where Z is 6-aminohexanoic acid and x stands for any amino acid except cysteine (theoretical degeneracy of 8.9×10^8 sequences). A fifth proline-oriented library was also made as a control for non-specific binding. Natural WW domains that folded in the work described above were subjected to this assay. […] Similarly, the assay confirms known group III (FE65) and IV (Pin1) domains.

[2] = tested on: PPxY-containing peptide; experiment: Peptide binding to wild-type and mutant Nedd4.3 WW domains by isothermal titration calorimetry (double mutant cycle); conditions: Nedd4.3 WW domain
Source text: FIGS. 6A-C: A spatially distributed network underlying WW specificity. FIG. 6A: two views of the Nedd4.3 WW domain (in blue CPK), with residues comprising the cluster of eight co-evolving residues as red CPK with a transparent van der Waals surface. The cluster forms a physically connected network that links binding site residues at positions 21, 23, and 28 with the opposite side residues at positions 3 and 4 through a few intervening residues at positions 6, 8, and 22. FIG. 6B: the thermodynamic mutant cycle formalism for measuring energetic coupling between a pair of mutations. The method involves measuring equilibrium dissociation constants for peptide binding for four proteins: wild-type (WT), a mutation at one site (M1), a mutation at a second site (M2), and the double mutation M1, M2. The fold effect of M1 is calculated for the wild type background (X1) or for the background of the second mutation (X2). The thermodynamic coupling parameter Ω is defined as the ratio of these two fold effects (X1/X2)— the degree to which the effect of one mutation depends on the second. FIG. 6C: double mutant cycle analysis of co-evolving positions in the N39 (Nedd4.3) WW domain. […] Peptide binding to wild-type and mutant WW domains was measured using isothermal titration calorimetery. […]

| Substance | binding specificity / binding class [1] | fold effect of single mutation on peptide binding relative to wild-type ([2]; PPxY-containing peptide, ITC) | effect of mutation in the background of T28A ([2]; mutant cycle) |
| --- | --- | --- | --- |
| CC55-15: artificial WW domain from the CC55 set (SEQ ID NO:35) (AGLPQGWEAAFDNSGAVYYVNPNTGKTQWERPCLEN) | group III binding profile | – | – |
| FE65: natural WW domain, known group III (SDLPAGWMRVQDTSGTYYWHIPTGTTQWEPPGR) | group III | – | – |
| L3A: alanine mutant at position 3 of the Nedd4.3 WW domain (GPAPPGWEERTHTDGRVFFINHNIKKTQWEDPRM) | – | 5.15+/−0.99 fold | diminished |
| Nedd4.3: natural group I WW domain, Nedd4.3 (N39) (GPLPPGWEERTHTDGRVFFINHNIKKTQWEDPRM) | specific interaction with the PPxY-containing sequences | – | – |
